In US5135943A, “1H-imidazole derivative compounds and pharmaceutical compositions containing the same” (priority 1984, dated 1992):
Converted amounts (≈) assume the structure as drawn. Where two headings read alike, the source gives them in different places.

Legend:
Trichophyton rubrum = experiment: Randomized double blind clinical trials, Trichophyton rubrum infection; type: in vivo, human; conditions: 2 % cream (nitrate salts), 28 days treatment
Procedure: Human clinical trials were performed with Sertaconazole nitrate and Miconazole nitrate acid addition salts. Randomized double blind trials were carried out with 502 patients suffering from cutaneous mycosis as confirmed by microscopic examination and microbiological culture. 247 patients were treated with 2 % Sertaconazole cream and the remaining 255 patients were treated with 2 % Miconazole cream. All patients received scheduled treatment for 28 days and were followed up for an additional 28 days for possible relapses.

Gram-positive germs = experiment: MIC by two-fold dilution, Gram-positive germs; type: cell-based; conditions: 21 strains; read-out: Minimum Inhibitory Concentration
Trichophyton rubrus = experiment: MIC by two-fold dilution, Trichophyton rubrus; type: cell-based; conditions: 10 strains, read-out: Minimum Inhibitory Concentration
Procedure: (§1) Minimum Inhibitory Concentrations (MICS) of Sertaconazole and Miconazole against 107 yeasts, 47 dermatophytes and 4 fungi were determined by a two-fold dilution method.

[1] = test system: Trichophyton mcntagrophytes; experiment: Dermal infection in albino female guinea pigs by Trichophyton mentagrophytes; type: in vivo, guinea pig; conditions: for % microbiological healing / Negative Cultures to Total Cultures: 2% cream
Description: (§2) A number of compounds with antimycotic and/or fungicidal properties, which are useful in pharmaceutical compositions, are currently known. These include the commercially successful Miconazole having the formula II [drawing 2] Miconazole has a structure chemically similar to the 1H-imidazole derivative compounds of the invention. Miconazole is effective against a number of yeasts, dermatophytes and fungi. This effectiveness can be measured by culturing these microorganisms in vitro and applying a preparation containing the antimycotic compound, Miconazole. The results of this type of in vitro experiment is expressed in terms of the Minimum Inhibitory Concentration (MIC), i.e. the minimum concentration which inhibits the growth of the microorganism. For example, the MIC for Miconazole against a particular Candida albicans strain is found to be 10.7 micrograms/milliliter. The effectiveness of Miconazole as an antimycotic compound is measured in vivo by applying a suspension containing the drug to the skin of a number of animals and measuring the proportion of animals on which growth of the microorganism is inhibited as a function of time. Typically, after 25 days, about 1/4 of the animals were cured, when treated with a cream containing 2 % by weight Miconazole. Of course, any pharmaceutical preparation for treating a disease in a human must satisfy certain toxicity requirements. […] Toxicity tests have been performed on the IH-imidazole derivative compounds of the invention and on Miconazole and other known compounds having antimycotic properties. In toxicity tests the LD50 (the dose at which 50 % mortality occurs) is measured.
Dermal infection in albino female guinea pigs by Trichophyton mcntagrophytes has been studied. Animals were distributed in three groups: a) a control group of infected untreated animals; b) a scrtaconazole group of infected and treated animals; and c) a miconazole group of infected and treated animals. Animals were depleted and a 0.4 ml suspension of the microorganism was applied on the depleted area. Treatment with each of the test drugs was made by application of 1 g of 2% cream on the depleted area on the 4th, 5th and 6th day after infection.

[2] = Acute toxicity (LD50) in rat, three administration routes; conditions: in vivo, males
Procedure: (§3) Toxicity of Sertaconazole, Microazole and Martin's compounds 1, 2 and 3, as shown below, has been tested by standard methods. Both acute toxicity, subacute toxicity and chronic toxicity were studied
(§4) Oral, intraperitoneal and subcutaneous acute toxicity of sertaconazole and miconazole have been investigated. LD50 in mouse and rat, male and female, were measured.

Candida tropicalis = experiment: MIC by two-fold dilution, Candida tropicalis; type: cell-based; conditions: 10 strains, read-out: Minimum Inhibitory Concentration
Procedure: as §1

Torulopsis glabrata = experiment: MIC by two-fold dilution, Torulopsis glabrata; type: cell-based; conditions: Nakaseomyces glabratus; 10 strains; read-out: Minimum Inhibitory Concentration
Procedure: as §1

Dermatophytes, Others = experiment: MIC by two-fold dilution, other dermatophytes; type: cell-based; conditions: 3 strains; read-out: Minimum Inhibitory Concentration
Procedure: as §1

[3] = test system: Scopulariopsis brevi-caulis; experiment: MIC by two-fold dilution, Scopulariopsis brevicaulis; type: cell-based
Procedure: as §1

Candida albicans = experiment: MIC by two-fold dilution, Candida albicans; type: cell-based
Description: as §2, §1

[4] = Comparison of acute toxicity of Sertaconazole and Miconazole (Table IV); type: in vivo
Procedure: as §4

[5] = Acute toxicity (LD50) in mouse, three administration routes; conditions: in vivo, males
Description: as §2, §3, §4

rats = experiment: Chronic toxicity in rats; type: in vivo, rat; conditions: even at dosage levels of 300 mg/kg
16 microorganisms = experiment: Geometric mean of all MIC measurements, comparative in vitro testing; type: cell-based; conditions: for MIC: read-out: Geometric means of MIC
Procedure: Minimum Inhibitory Concentrations (MICS) of Sertaconazole were also measured in comparison to four of the compounds described in the Martin Patent, including a compound, referred to herein as Martin Compound 1, which has the same structure as Sertaconazole, expect that the sulfur in the benzothiophene ring is replaced by an oxygen.
The results of comparative in vitro testing of Sertaconazole and these four Martin compounds are shown in the following Table II against 16 microorganisms. The reading time is the time interval from the time of inoculation to the time of measurement.

Microsporum canis = experiment: MIC by two-fold dilution, Microsporum canis; type: cell-based; conditions: 4 strains, read-out: Minimum Inhibitory Concentration
Procedure: as §1

[6] = test system: Trichophyton menta-grophytes; experiment: MIC by two-fold dilution, Trichophyton mentagrophytes; type: cell-based; conditions: 30 strains, read-out: Minimum Inhibitory Concentration
Procedure: as §1

Clc1ccc(C(Cn2ccnc2)OCc2csc3c(Cl)cccc23)c(Cl)c1 (centres unmarked) [Sertaconazole]
effectiveness against Trichophyton rubrum (Trichophyton rubrum): 100% | MIC (Gram-positive germs): 0.97 µg/mL (≈ 2.22 µM) | MIC (Trichophyton rubrus): 0.4 µg/mL (≈ 0.914 µM) | % microbiological healing ([1]; 18 days postinfection): 56% | Negative Cultures to Total Cultures ([1]; 18 days postinfection): 27/48 | % microbiological healing ([1]; 25 days postinfection): 75% | Negative Cultures to Total Cultures ([1]; 25 days postinfection): 36/48 | % microbiological healing ([1]; 32 days postinfection): 84% | Negative Cultures to Total Cultures ([1]; 32 days postinfection): 40/48 | activity higher than Miconazole ([1]; 18th day postinfection): 9 times | activity higher than Miconazole ([1]; 25th day postinfection): 2.7 times | activity higher than Miconazole ([1]; 32nd day postinfection): 1.9 times | LD50 ([2]; ip, intraperitoneal): > 8000 mg/kg | LD50 ([2]; oral): > 8000 mg/kg | LD50 ([2]; sc, subcutaneous): > 8000 mg/kg | MIC (Candida tropicalis): 5.6 µg/mL (≈ 12.8 µM) | MIC (Torulopsis glabrata): 1.5 µg/mL (≈ 3.43 µM) | MIC (Dermatophytes, Others): 2.5 µg/mL (≈ 5.71 µM) | MIC ([3]; Scopulariopsis, 4 strains, read-out: Minimum Inhibitory Concentration): 8 µg/mL (≈ 18.3 µM) | increase of activity in comparison to Miconazole ([3]; in vitro): 75% | MIC (Candida albicans; Candida albicans, 52 strains, read-out: Minimum Inhibitory Concentration): 6 µg/mL (≈ 13.7 µM) | increase of activity in comparison to Miconazole (Candida albicans; in vitro): 43.9% | acute toxicity relative to Miconazole ([4]; oral and intraperitoneal routes): an order of magnitude less toxic | acute toxicity relative to Miconazole ([4]; subcutaneous): significantly less | LD50 ([5]; ip, intraperitoneal): > 8000 mg/kg | LD50 ([5]; oral): > 8000 mg/kg | LD50 ([5]; sc, subcutaneous): > 8000 mg/kg | mortality (rats): no mortality was observed | MIC (16 microorganisms; 48 h, SZ vs M2, reading time 48 h): 0.366 µg/mL (≈ 0.836 µM) | MIC (16 microorganisms; 48 h, SZ vs M3, reading time 48 h): 0.336 µg/mL (≈ 0.768 µM) | MIC (16 microorganisms; 48 h, SZ vs M4, reading time 48 h): 0.336 µg/mL (≈ 0.768 µM) | MIC (16 microorganisms; 60 h, SZ vs M1, reading time 60 h): 0.876 µg/mL (≈ 2 µM) | Increase of Sertaconazole activity (16 microorganisms; relative to Martin Compound 1): 24% | Increase of Sertaconazole activity (16 microorganisms; relative to Martin Compound 2): 54% | Increase of Sertaconazole activity (16 microorganisms; relative to Martin Compound 3): 16% | Increase of Sertaconazole activity (16 microorganisms; relative to Martin Compound 4): 54% | MIC (Microsporum canis): 2.8 µg/mL (≈ 6.4 µM) | MIC [6]: 2.6 µg/mL (≈ 5.94 µM)
